Test results: US20210330645A1, “ANTIBACTERIAL COMBINATIONS” (priority 2018, published 2021)
Converted amounts (≈) assume the structure as drawn. “And” between values parts separate entries of the source, which are not always exact repeats. Equal values may be shown once.

Experiments:
Escherichia coli O157 = experiment: Checkerboard growth inhibition assay, E. coli O157; type: cell-based; conditions: for FIC of the single component within the triple combination: Van+FZ+DOC at the lowest FICi point
Procedure: (§1) Each combination was performed in triplicate.
(§2) The interaction between two drugs was interpreted as synergistic if FICi was ≤0.5, indifferent if it was >0.5 and ≤4, and antagonistic if it was >4.
(§3) A growth inhibition assay was used where a series of concentrations of each antibacterial was applied combined with several concentrations of other two antibacterials (7 concentrations of Van, 8 of FZ and 9 of DOC). […] Starting from the highest concentrations, two-fold dilution series were assayed. E. coli cultures were seeded with ˜10^6 cells/mL and incubated overnight. Optical densities of each combination of concentrations were measured to assess growth and the inhibition relative to the no-antibiotic control were calculated. […] The synergistic interaction has been defined by the Fractional Inhibitory Concentration index (FICi); see the Definitions and Material and Methods sections. FICi represents the sum of the individual Fractional Inhibitory Concentrations (FIC). An FIC in turn is equal to the ratio of concentration that inhibits growth (>90%) in combination vs. alone. For pairwise combinations, the FICi below 0.5 (below 0.25 for each antibiotic) is considered synergistic; by extension for triple combination the FICi should be <0.75 (again below 0.25 for each antibiotic).

[1] = system: various Gram-negative bacteria; experiment: Inhibition of various Gram-negative bacteria by vancomycin alone and in combination; type: cell-based
Procedure: as §1

E. coli [2] = experiment: Growth inhibition of E. coli by vancomycin (strain not specified)
E. coli K12 = experiment: Checkerboard / dose-response growth inhibition assay, E. coli K12; type: cell-based, Escherichia coli; conditions: for FIC of the single component within the triple combination: Van+FZ+DOC at the lowest FICi point; for growth inhibition at the concentrations of the time-kill assay: FZ 1.25 μg/ml, alone or in combination
Procedure: E. coli was grown in 2×YT medium (BD Difco) at 37° C. with shaking at 200 rpm. For preparation of exponential phase cells, fresh overnight culture was 100-fold diluted and incubated to reach the OD600nm of about 0.1-0.2. This cell suspension was then diluted to the desirable concentration depending on specific purposes.
as §1, §2, §3

E. coli [3] = conditions: cited from earlier work
[4] = cited from earlier work
Klebsiella pneumoniae = experiment: Checkerboard growth inhibition assay, Klebsiella pneumoniae; type: cell-based; conditions: CM4 did not inhibit growth in the range used
Procedure: as §1, §2
Triple synergy is based on the pairwise synergies of the three antibacterials, FZ (a nitrofuran), DOC and Van. To start understanding the triple interaction, a series of experiments analysing pairwise combinations were carried out. […] In contrast, Klebsiella is susceptible to synergistic action of FZ (but not NF and NFZ) with DOC and is resistant to nitrofuran CM4.

[5] = with FZ and DOC, at the lowest FICi point

CN[C@H](CC(C)C)C(=O)N[C@H]1C(=O)N[C@@H](CC(N)=O)C(=O)N[C@H]2C(=O)N[C@H]3C(=O)N[C@H](C(=O)N[C@H](C(=O)O)c4cc(O)cc(O)c4-c4cc3ccc4O)[C@H](O)c3ccc(c(Cl)c3)Oc3cc2cc(c3O[C@@H]2O[C@H](CO)[C@@H](O)[C@H](O)[C@H]2O[C@H]2C[C@](C)(N)[C@H](O)[C@H](C)O2)Oc2ccc(cc2Cl)[C@H]1O [Van, vancomycin]
concentration of Van required to inhibit, used alone (Escherichia coli O157; 90% growth inhibition): 250 µg/mL
FIC of the single component within the triple combination (Escherichia coli O157): 0.03125
concentration of Van required to inhibit, in triple combination (Escherichia coli O157; [5]): 16 µg/mL
concentration of vancomycin required to inhibit, before lowering (alone) ([1]; some variation between strains): about 500 μg/mL
bactericidal concentration of vancomycin in the triple combination ([1]; with a nitrofuran and DOC): 15.6 µg/mL
concentration required for E. coli growth inhibition when used on its own (E. coli [2]): > 250 µg/mL
Van concentration in triple combination at several points in the graph (E. coli [2]; E. coli K12 and O157, with FZ and DOC): 16 µg/mL and 10 µg/mL
concentration of Van required to inhibit, used alone (E. coli K12; 90% growth inhibition): 500 µg/mL
FIC of the single component within the triple combination (E. coli K12): 0.03125
growth inhibition at the concentrations of the time-kill assay (E. coli K12; strain BW25113, Van 125 μg/ml): sub-inhibitory
concentration of Van required to inhibit, in triple combination (E. coli K12; [5]): 20 µg/mL
MIC when used on its own (E. coli [3]): 250 µg/mL (≈ 173 µM)
known nephrotoxic concentrations ([4]; depending on the mode and length of treatment): 30 µg/mL and 20 µg/mL
concentration considered below nephrotoxic level (sub-toxic) ([4]; recommended therapeutic concentration, 6-day treatment): below 20 μg/mL

O=C(NN=Cc1ccc([N+](=O)[O-])o1)c1ccco1 [CM4, N′-[(5-nitrofuran-2-yl)methylidene]furan-2-carbohydrazide]
concentration range in which growth was not inhibited (up to) (Klebsiella pneumoniae): > 256 µg/mL

O=C1OCCN1/N=C/c1ccc([N+](=O)[O-])o1 [FZ, 3-[(E)-(5-nitrofuran-2-yl)methylideneamino]-1,3-oxazolidin-2-one]
FIC of the single component within the triple combination (Escherichia coli O157): 0.0625
growth inhibition at the concentrations of the time-kill assay (E. coli K12; strain BW25113, Van 125 μg/ml): sub-inhibitory
growth inhibition at the concentrations of the time-kill assay (E. coli K12; strain K1508, DOC 2,500 μg/ml): sub-inhibitory

C[C@H](CCC(=O)[O-])[C@H]1CC[C@H]2[C@@H]3CC[C@@H]4C[C@H](O)CC[C@]4(C)[C@H]3C[C@H](O)[C@]12C.[Na+] [DOC, sodium; (4R)-4-[(3R,5R,8R,9S,10S,12S,13R,14S,17R)-3,12-dihydroxy-10,13-dimethyl-2,3,4,5,6,7,8,9,11,12,14,15,16,17-tetradecahydro-1H-cyclopenta[a]phenanthren-17-yl]pentanoate]
FIC of the single component within the triple combination (Escherichia coli O157): 0.03125
FIC of the single component within the triple combination (E. coli K12): 0.0625
growth inhibition at the concentrations of the time-kill assay (E. coli K12; strain K1508, DOC 2,500 μg/ml): sub-inhibitory
